# Entries after “also recorded” stand apart in the source; their conditions may differ.
# B1: anti-PD-L1 antibody clone 38A1-IgG4-HA (antibody)
# chain: EVQLVESGGGLVQPGGSLRLSCAASGFTFSNYAMSWVRQAPGKGLEWVSTISGSGGTTYYADSVKGRFTISRDNSKNTLYLQMNSLRVEDTAVYYCAKDWFRSSSPDAFDIWGQGTTVTVSAGGGGSGGGGSGGGGSGAPSYVLTQPPSVSVAPGQTARITCGGNNIGRKIVHWYQQRPGQAPVLVIYYDTDRPAGIPERFSGSNSGNMATLTISTVGAGDEADYYCQVWDTGSDHVVFGGGTKLTVL
# B2: anti-PD-L1 antibody clone 19H9-IgG4-Flag (antibody)
# chain: QVQLQESGGGLVKPGGSLRLSCAASGFTFSSYSMNWVRQAPGKGLEWVSGINTAGDTHYPESVKGRFTISRDNARNSLNLQMNSLRAEDTAVYYCVRERVEREYSGYDAFDIWGQGTTVTVSAGGGGSGGGGSGGGGSGAPNFMLTQPHSVSESLGKTVTISCTGSSGSIARKFVQWYQQRPGSSPTTVIYENNQRPSGVSDRFSGSIGSSSNSASLTISGLKTEDEADYYCQSYDSSNVVFGGGTKVTVL
# Columns and labels:
# [1] = system: TILs; experiment: Cytokine expression of drug-treated TILs after overnight anti-CD3/CD28 bead stimulation; assay type: cell-based, human
# [2] = system: TILs; experiment: Expansion and viability of TILs treated with drug during ex vivo 22-day expansion; assay type: cell-based, human; details: ipatasertib 0.3 or 1 μM, pre-REP and REP or REP only, relative to controls
# Method: Patient tumors from different indications were received, fragmented, and subjected to an expansion protocol for TIL manufacturing. Different doses (0.3 μM and 1 μM) of the pan-AKT inhibitor ipatasertib were added to the culture during ex vivo expansion. The expansion potential, as well as the phenotypic and functional characteristics were evaluated on the final TIL product. Eight tumors, including tumors from melanoma, NSCLC, head and neck cancer, ovarian cancer, and breast cancer, were used in combination with the Gen 2 process.
# Expansion, viability and T cell distribution in control and AKT inhibitor-treated TILs are shown. TILs were left untreated or treated with increasing concentrations of the pan-AKT inhibitor ipatasertib. Treatment was added either during the pre-REP and REP (blue bars) or during the REP stage only (purple bars). Fold expansion and viability of TIL at the end of the 22-day expansion process are shown. Frequency of CD8^+, CD4^+ and CD4^+ (Foxp3^+) cells after the expansion process on cryopreserved cells are also shown.
# In this example, the use of decitabine, a DNA hypomethylation agent, in culture as an epigenetic modifier of TIL products was explored. […] Patient tumors (N=8) from different tumor types (non-small cell lung, head and neck, ovarian, and breast cancers) were obtained from donors, fragmented, and subjected to a 22-day expansion protocol for TIL generation. Different doses (10 nM, 30 nM, and 100 nM) of decitabine were added to the culture during ex vivo expansion either during the pre-REP and REP stages or during REP only. The expansion potential as well as the phenotypic and functional characteristics of TILs were evaluated in the final TIL product.
# TILs were left untreated (CTRL, gray bars) or treated with increasing concentrations of decitabine. Treatment was added either during the REP stage only (blue bars) or during both pre-REP and REP (green bars).
# [3] = system: TILs; experiment: Flow cytometry phenotype of drug-treated TILs (T-cell subsets, surface markers, transcription factors); assay type: cell-based, human
# [4] = target: T1, PD-L1 (human, UniProt Q9NZQ7 19-290, limits assumed); experiment: characterization of the anti-PD-L1 antibody clone; EC50 assay method not given
# T1 construct: also called hPD-L1; CD274
# T1 sequence (Q9NZQ7 19-290 limits assumed): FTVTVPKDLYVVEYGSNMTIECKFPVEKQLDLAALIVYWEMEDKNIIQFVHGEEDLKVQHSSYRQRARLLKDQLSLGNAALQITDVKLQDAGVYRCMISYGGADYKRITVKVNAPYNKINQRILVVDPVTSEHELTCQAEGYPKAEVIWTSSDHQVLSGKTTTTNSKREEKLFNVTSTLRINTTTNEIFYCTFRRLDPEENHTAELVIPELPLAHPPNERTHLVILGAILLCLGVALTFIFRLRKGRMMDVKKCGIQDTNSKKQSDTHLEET
# [5] = AKT inhibition during expansion
Molecule,"cytokine output following stimulation ([1]; 1 μM ipatasertib at pre-REP and REP, anti-CD3/CD28 beads 1:5 overnight)",frequency of IFNγ+ TNFα+ CD8+ T cells ([1]; AKT inhibitor treatment),TIL expansion (fold expansion) [2],TIL viability [2],TIL expansion (fold expansion) ([2]; listed as AKT inhibitor),TIL viability ([2]; listed as AKT inhibitor),"IL-7R and CXCR3 expression on CD8+ TILs [3, 5]","frequency of CD8+ TEMRA cells [3, 5]","population of less differentiated CD39-CD69- cells ([3]; AKT inhibitor during expansion, relative to controls)",TOX expression following stimulation ([3]; AKT inhibitor-treated TILs),"expression of CD38 and transcription factors T-bet and TOX ([3]; CD39-CD69- cells, AKT inhibitor 1 μM)","T cell ratios (CD8+, CD4+, CD4+ Foxp3+) ([3]; ipatasertib-treated TILs after expansion)",EC50 [4] [nM]
CC(C)NC[C@@H](C(=O)N1CCN(c2ncnc3c2[C@H](C)C[C@H]3O)CC1)c1ccc(Cl)cc1 [ipatasertib],higher cytokine output,increase,maintains,maintains,equivalent,equivalent,increase,increase,increases; also recorded: doubled,lower TOX expression,reduced expression,without affecting T cell ratios,
B1,,,,,,,,,,,,,0.404
B2,,,,,,,,,,,,,0.125
